# Experimental data reported in the supplement of paper PMC10733146.
# Experiments:
# Test in all cases: viability relative to DMSO control (fraction); higher = less drug effect (more viable cells)
# Details in all cases: 48 h
# [1] = compound: C[C@H]1C[C@@H](n2c(Nc3ccc(OC(F)(F)F)cc3)nc3cc(CCC(=O)O)ccc32)CC(C)(C)C1
# Summary of the method: (§1)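 Viability was measured as CellTiter-Glo luminescence relative to the median of 16 inner DMSO wells. Primary mononuclear tumour cells, fresh or cryopreserved, were Ficoll-isolated from blood or bone marrow or taken from processed lymph node. They were seeded at 4 × 10^4 cells per well into 384-well plates holding pre-plated compounds at five concentrations, one well each, and kept in RPMI-1640 with penicillin/streptomycin, L-glutamine and human serum at 37 °C and 5% CO2 for 48 h.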
# [2] = compound: O=C(Nc1ccc2[nH]nc(-c3ccncc3)c2c1)[C@@H]1CCN(CC(=O)N2CCN(c3ccc(-c4ncccn4)cc3)CC2)C1
# Summary of the method: as §1
# [3] = compound: CCc1ccc(/C=C2/SC(=S)NC2=O)cc1
# Summary of the method: as §1
# Pomalidomide = compound: Nc1cccc2c1C(=O)N(C1CCC(=O)NC1=O)C2=O [Pomalidomide]
# Summary of the method: as §1
# Vindesine = compound: CC[C@]1(O)C[C@@H]2CN(CCc3c([nH]c4ccccc34)[C@@](C(=O)OC)(c3cc4c(cc3OC)N(C)[C@H]3[C@@](O)(C(N)=O)[C@H](O)[C@]5(CC)C=CCN6CC[C@]43[C@@H]65)C2)C1 [Vindesine]
# Summary of the method: as §1
# I-BET-762 = compound: CCNC(=O)C[C@@H]1N=C(c2ccc(Cl)cc2)c2cc(OC)ccc2-n2c(C)nnc21 [I-BET-762]
# Summary of the method: as §1
# Chlorambucil = compound: O=C(O)CCCc1ccc(N(CCCl)CCCl)cc1 [Chlorambucil]
# Summary of the method: as §1
# Filgotinib = compound: O=C(Nc1nc2cccc(-c3ccc(CN4CCS(=O)(=O)CC4)cc3)n2n1)C1CC1 [Filgotinib]
# Summary of the method: as §1
# [4] = compound: O=C(NO)c1cccc(C(=O)NCCc2ccccc2)c1
# Summary of the method: as §1
# Venetoclax = compound: CC1(C)CCC(CN2CCN(c3ccc(C(=O)NS(=O)(=O)c4ccc(NCC5CCOCC5)c([N+](=O)[O-])c4)c(Oc4cnc5[nH]ccc5c4)c3)CC2)=C(c2ccc(Cl)cc2)C1 [Venetoclax]
# Summary of the method: as §1
# Duvelisib = compound: C[C@H](Nc1ncnc2nc[nH]c12)c1cc2cccc(Cl)c2c(=O)n1-c1ccccc1 [Duvelisib]
# Summary of the method: as §1
# Thalidomide = compound: O=C1CCC(N2C(=O)c3ccccc3C2=O)C(=O)N1 [Thalidomide]
# Summary of the method: as §1
# Navitoclax = compound: CC1(C)CCC(c2ccc(Cl)cc2)=C(CN2CCN(c3ccc(C(=O)NS(=O)(=O)c4ccc(N[C@H](CCN5CCOCC5)CSc5ccccc5)c(S(=O)(=O)C(F)(F)F)c4)cc3)CC2)C1 [Navitoclax]
# Summary of the method: as §1
# Idasanutlin (RS7388) = compound: COc1cc(C(=O)O)ccc1NC(=O)[C@@H]1N[C@@H](CC(C)(C)C)[C@](C#N)(c2ccc(Cl)cc2F)[C@H]1c1cccc(Cl)c1F [Idasanutlin (RS7388)]
# Summary of the method: as §1
# [5] = compound: C[C@H](NC(=O)CCC(F)(F)F)C(=O)N[C@@H]1C(=O)N(CCO)c2ncccc2-c2ccccc21
# Summary of the method: as §1
test system,measurement,setting,value
primary FL patient cells (S087),viability,[1]; 0.024 µM,0.885
same,viability,[1]; 0.12 µM,0.938
same,viability,[1]; 0.6 µM,0.904
same,viability,[1]; 3 µM,0.829
same,viability,[1]; 15 µM,0.93
same,viability,[2]; 0.008 µM,0.961
same,viability,[2]; 0.04 µM,0.903
same,viability,[2]; 0.2 µM,0.943
same,viability,[2]; 1 µM,0.886
same,viability,[2]; 5 µM,0.851
same,viability,[3]; 0.024 µM,0.862
same,viability,[3]; 0.12 µM,0.862
same,viability,[3]; 0.6 µM,0.99
same,viability,[3]; 3 µM,0.923
same,viability,[3]; 15 µM,0.943
same,viability,Pomalidomide; 0.0032 µM,0.992
same,viability,Pomalidomide; 0.016 µM,1.02
same,viability,Pomalidomide; 0.08 µM,1.09
same,viability,Pomalidomide; 0.4 µM,0.995
same,viability,Pomalidomide; 2 µM,0.994
same,viability,Vindesine; 0.016 µM,0.87
same,viability,Vindesine; 0.08 µM,0.836
same,viability,Vindesine; 0.4 µM,0.728
same,viability,Vindesine; 2 µM,0.737
same,viability,Vindesine; 10 µM,0.637
same,viability,I-BET-762; 0.008 µM,0.99
same,viability,I-BET-762; 0.04 µM,1.02
same,viability,I-BET-762; 0.2 µM,0.963
same,viability,I-BET-762; 1 µM,0.901
same,viability,I-BET-762; 5 µM,0.837
same,viability,Chlorambucil; 0.032 µM,0.991
same,viability,Chlorambucil; 0.16 µM,0.961
same,viability,Chlorambucil; 0.8 µM,0.955
same,viability,Chlorambucil; 4 µM,0.925
same,viability,Chlorambucil; 20 µM,0.706
same,viability,Filgotinib; 0.024 µM,1.04
same,viability,Filgotinib; 0.12 µM,0.977
same,viability,Filgotinib; 0.6 µM,1
same,viability,Filgotinib; 3 µM,0.916
same,viability,Filgotinib; 15 µM,0.737
same,viability,[4]; 0.024 µM,1.02
same,viability,[4]; 0.12 µM,0.957
same,viability,[4]; 0.6 µM,1.08
same,viability,[4]; 3 µM,1.04
same,viability,[4]; 15 µM,0.912
same,viability,Venetoclax; 0.00064 µM,1.01
same,viability,Venetoclax; 0.0032 µM,0.938
same,viability,Venetoclax; 0.016 µM,0.74
same,viability,Venetoclax; 0.08 µM,0.364
same,viability,Venetoclax; 0.4 µM,0.0932
same,viability,Duvelisib; 0.0016 µM,0.849
same,viability,Duvelisib; 0.008 µM,0.811
same,viability,Duvelisib; 0.04 µM,0.764
same,viability,Duvelisib; 0.2 µM,0.758
same,viability,Duvelisib; 1 µM,0.795
same,viability,Thalidomide; 0.032 µM,0.986
same,viability,Thalidomide; 0.16 µM,0.925
same,viability,Thalidomide; 0.8 µM,0.951
same,viability,Thalidomide; 4 µM,0.996
same,viability,Thalidomide; 20 µM,0.985
same,viability,Navitoclax; 0.0032 µM,0.95
same,viability,Navitoclax; 0.016 µM,1.01
same,viability,Navitoclax; 0.08 µM,0.82
same,viability,Navitoclax; 0.4 µM,0.508
same,viability,Navitoclax; 2 µM,0.084
same,viability,Idasanutlin (RS7388); 0.032 µM,0.834
same,viability,Idasanutlin (RS7388); 0.16 µM,0.877
same,viability,Idasanutlin (RS7388); 0.8 µM,0.803
same,viability,Idasanutlin (RS7388); 4 µM,0.694
same,viability,Idasanutlin (RS7388); 20 µM,0.671
same,viability,[5]; 0.016 µM,1.02
same,viability,[5]; 0.08 µM,1.02
same,viability,[5]; 0.4 µM,1.05
same,viability,[5]; 2 µM,1.03
same,viability,[5]; 10 µM,0.98
primary MCL patient cells (S063),viability,[1]; 0.024 µM,0.864
same,viability,[1]; 0.12 µM,1.16
same,viability,[1]; 0.6 µM,1.01
same,viability,[1]; 3 µM,0.902
same,viability,[1]; 15 µM,0.94
same,viability,[2]; 0.008 µM,0.965
same,viability,[2]; 0.04 µM,0.985
same,viability,[2]; 0.2 µM,0.989
same,viability,[2]; 1 µM,0.931
same,viability,[2]; 5 µM,0.858
same,viability,[3]; 0.024 µM,0.863
same,viability,[3]; 0.12 µM,0.924
same,viability,[3]; 0.6 µM,0.912
same,viability,[3]; 3 µM,0.901
same,viability,[3]; 15 µM,0.903
same,viability,Pomalidomide; 0.0032 µM,1
same,viability,Pomalidomide; 0.016 µM,1.08
same,viability,Pomalidomide; 0.08 µM,1.14
same,viability,Pomalidomide; 0.4 µM,1.08
same,viability,Pomalidomide; 2 µM,1.11
same,viability,Vindesine; 0.016 µM,0.731
same,viability,Vindesine; 0.08 µM,0.182
same,viability,Vindesine; 0.4 µM,0.175
same,viability,Vindesine; 2 µM,0.122
same,viability,Vindesine; 10 µM,0.108
same,viability,I-BET-762; 0.008 µM,1.03
same,viability,I-BET-762; 0.04 µM,1.04
same,viability,I-BET-762; 0.2 µM,1.05
same,viability,I-BET-762; 1 µM,0.866
same,viability,I-BET-762; 5 µM,0.711
same,viability,Chlorambucil; 0.032 µM,0.932
same,viability,Chlorambucil; 0.16 µM,0.999
same,viability,Chlorambucil; 0.8 µM,1.03
same,viability,Chlorambucil; 4 µM,0.909
same,viability,Chlorambucil; 20 µM,0.388
same,viability,Filgotinib; 0.024 µM,0.893
same,viability,Filgotinib; 0.12 µM,0.937
same,viability,Filgotinib; 0.6 µM,0.93
same,viability,Filgotinib; 3 µM,0.939
same,viability,Filgotinib; 15 µM,0.253
same,viability,[4]; 0.024 µM,0.981
same,viability,[4]; 0.12 µM,0.949
same,viability,[4]; 0.6 µM,1.01
same,viability,[4]; 3 µM,1.03
same,viability,[4]; 15 µM,0.983
same,viability,Venetoclax; 0.00064 µM,1.06
same,viability,Venetoclax; 0.0032 µM,0.901
same,viability,Venetoclax; 0.016 µM,0.804
same,viability,Venetoclax; 0.08 µM,0.474
same,viability,Venetoclax; 0.4 µM,0.238
same,viability,Duvelisib; 0.0016 µM,0.73
same,viability,Duvelisib; 0.008 µM,0.662
same,viability,Duvelisib; 0.04 µM,0.665
same,viability,Duvelisib; 0.2 µM,0.619
same,viability,Duvelisib; 1 µM,0.526
same,viability,Thalidomide; 0.032 µM,1.01
same,viability,Thalidomide; 0.16 µM,0.925
same,viability,Thalidomide; 0.8 µM,0.976
same,viability,Thalidomide; 4 µM,1.02
same,viability,Thalidomide; 20 µM,1.04
same,viability,Navitoclax; 0.0032 µM,1.04
same,viability,Navitoclax; 0.016 µM,0.983
same,viability,Navitoclax; 0.08 µM,0.753
same,viability,Navitoclax; 0.4 µM,0.392
same,viability,Navitoclax; 2 µM,0.186
same,viability,Idasanutlin (RS7388); 0.032 µM,0.767
same,viability,Idasanutlin (RS7388); 0.16 µM,0.798
same,viability,Idasanutlin (RS7388); 0.8 µM,0.485
same,viability,Idasanutlin (RS7388); 4 µM,0.272
same,viability,Idasanutlin (RS7388); 20 µM,0.15
same,viability,[5]; 0.016 µM,1.1
same,viability,[5]; 0.08 µM,1.11
same,viability,[5]; 0.4 µM,1.01
same,viability,[5]; 2 µM,1.04
same,viability,[5]; 10 µM,0.885
